{
  "source": "patent US20230103142A1",
  "about": "“SMALL MOLECULE REGULATORS OF NOTCH1 AND USES THEREOF” (THE PENN STATE RESEARCH FOUNDATION, priority 2020, published 2023)",
  "key": {"[1]": {"tested_on": "Notch1 silenced HCT116 cells", "details": "vs scrambled transfected HCT116, 24 h", "description": "(§1) Cell culture and supplies: HCT116, SW-620, TCCSUP, UMUC3, HT1376, 5637, T24 and RT4 cells were purchased from ATCC (American Type Culture Collection; Manassas, Va., USA). HCT116, T24, RT4 were maintained in McCoy's medium, TCCSUP, UMUC3, HT1376 in EMEM, SW620 in DMEM and 5637 in RPMI medium, respectively, and supplemented with 10% FBS and penicillin (100 units/mL) and streptomycin (100 units/mL; Millipore Sigma, St Louis, […]., USA) in the presence of 5% CO2 at 37° C. pCMV6-NOTCH1, vector pCMV6-Entry (NOTCH′ (NM_017617) Human ORF Clone; Origene) and NOTCH1 Human siRNA Oligo Duplex were obtained from Origene Technologies Inc. (Rockville, Md., USA). Lipofectamine 2000 reagent was used following the manufacturer's (Cat #11668019; ThermoFisher Scientific) instruction, transfection with overexpression vectors was performed with 500 ng plasmid concentration, while the siRNA was used in 25 nM concentration. Cells were allowed to be transfected for 48 hrs and later harvested or treated for further analysis. Neomycin ([…]) selection media was used to cultivate Notch1-overexpressing HCT116 clones (C1, C2, C3, C4, C5)."}, "Notch1/HCT116 clone C4 [2]": {"tested_on": "Notch1/HCT116 clone C4", "details": "read-out: IC50 cell growth; C4 transfectants, 24 h", "description": "as §1"}, "Notch1/HCT116 clone C5 [3]": {"tested_on": "Notch1/HCT116 clone C5", "details": "read-out: IC50 cell growth; C5 transfectants, 24 h", "description": "as §1"}, "[4]": {"tested_on": "NICD and HES1 in HCT116 cells", "details": "HCT116, IC50 concentration", "description": "(§2) Protein extraction and western blotting: Mammalian Protein Extraction Reagent (Thermo Scientific, Rockford, Ill., USA) was used to extract total protein from pCMV/HCT116, C4, and C5 cells as well as bladder cancer cells were prepared with the according to the manufacturer's instructions. Western blotting was performed using specific antibodies against Notch1 (Cat: 3447S), Bcl-2 (Cat: 2872S), E-cadherin (Cat: 3195S), N-cadherin (Cat: 13116S), Snail (Cat: 3879S), β-catenin (Cat: 8480S), NF-κB (p65), Bax (Cat: 5023S), cleaved PARP (Cat: 9541L) (Cell Signaling Technology; Danvers, Mass., USA), and β-actin (Santa Cruz Biotechnologies, Dallas, Tex., USA), HES1 (Genescript; Lot QC1851, Piscataway, N.J., USA). Actin presented in the images represent the loading control for one or more markers from same cell lysates. Chemiluminescence was used to detect the positive bands on the membrane."}, "[5]": {"tested_on": "NICD and HES1 in SW620 cells", "details": "SW620, IC50 concentration", "description": "as §2"}, "HCT116 cells [6]": {"tested_on": "HCT116 cells", "details": "HCT116, 24 h", "description": "Flow cytometry analysis: 0.3×10^6 cells seeded in a 6 well plate and were cultured until 70-80% confluence was achieved. […] To quantify apoptosis, flow cytometry analysis of the Annexin V-FITC against Propidium Iodide (PI) assay was performed following a previously described protocol. The Apoptosis detection kit was purchased from BD Pharminogen™, San Diego, Calif., USA. All experiments were repeated in triplicate to achieve statistical relevance."}, "HCT116 cells [7]": {"tested_on": "HCT116 cells", "details": "HCT116, 24 h", "description": "(§3) Cell invasion and migration assays: The invasive capability of pCMV/HCT116 and Notch1/HCT116 was evaluated in Boyden chambers, as described in earlier studies. HCT 116, SW-620, pCMV/HCT116, and Notch1/HCT116 cells were analyzed for migration capability with protocols already described in an earlier study. All experiments were performed in triplicate to achieve statistical relevance.", "remark": "listed apart in the source"}, "Notch1/HCT116 clone C4 [8]": {"tested_on": "Notch1/HCT116 clone C4", "details": "C4, IC50 dose, 24 h", "description": "as §3"}, "Notch1/HCT116 clone C5 [9]": {"tested_on": "Notch1/HCT116 clone C5", "details": "C5, IC50 dose, 24 h", "description": "as §3"}, "SW620 cells": {"tested_on": "SW620 cells", "details": "SW620, 24 h", "description": "as §3"}, "pCMV/HCT116 cells [10]": {"tested_on": "pCMV/HCT116 cells", "details": "pCMV/HCT116, IC50 dose, 24 h", "description": "as §3"}, "ubiquitin in ALDH+ cells": {"tested_on": "ubiquitin in ALDH+ cells", "assay": "ubiquitin expression", "type": "cell-based", "source_text": "Commercially available positive and negative controls were used for these experiments."}, "MDA-MB-231 TNBC cells": {"tested_on": "MDA-MB-231 TNBC cells", "assay": "cell viability assay", "type": "cell-based", "details": "for pIC50: read-out: IC50 cell growth", "description": "Synergistic effects of combinations were calculated via isobologram analysis."}, "HCT116 cells [11]": {"tested_on": "HCT116 cells", "details": "read-out: IC50 cell viability", "procedure": "(§4) Six biological replicates used for MTT assays and it was repeated twice for each experiment. […] The anchorage-independent growth assay was performed and repeated in triplicate."}, "SW-620 cells": {"tested_on": "SW-620 cells", "details": "read-out: IC50 cell viability", "procedure": "as §4"}, "MDA-MB-231 cells": {"tested_on": "MDA-MB-231 cells", "assay": "apoptosis assay"}, "pCMV/HCT116 cells [12]": {"tested_on": "pCMV/HCT116 cells", "assay": "colony forming assay", "procedure": "as §4"}, "Notch1/HCT116 clone C4 [13]": {"tested_on": "Notch1/HCT116 clone C4", "assay": "colony forming assay", "procedure": "as §4"}, "[14]": {"tested_on": "Notch1/HCT116 (C4) xenografts", "assay": "xenograft tumor growth study", "details": "5 mg/kg intraperitoneally thrice a week, 4 weeks", "procedure": "Xenograft studies: Six- to eight-week-old BALB/c athymic nude mice (nu/nu) (Jackson Laboratory: Bar Harbor, Me., USA) were subcutaneously injected with pCMV/HCT116 and C4 (1×10^6 cells). The monitoring and measurements were performed."}, "[15]": {"tested_on": "ALDH+ xenotransplanted tumors", "assay": "ALDH+ xenotransplant tumor burden", "details": "ALDH+ xenotransplanted mice"}},
  "note": "pIC50: −log10 of the molar value. Read-outs that look alike come from different tables or passages of the source.",
  "data": [
    {"smiles": "CC1=C(CO)C(=O)O[C@@H]([C@@H](C)[C@H]2CC[C@H]3[C@@H]4C[C@H]5O[C@]56[C@@H](OC(=O)c5ccccn5)C=CC(=O)[C@]6(C)[C@H]4CC[C@]23C)C1", "note": "[ASR490, Pyridine-2-carboxylic acid {17-[1-(5-hydroxymethyl-4-methyl-6-oxo-3,6-dihydro-2H-pyran-2-yl)-ethyl]-10,13-dimethyl-1-oxo, 4,6,7,8,9,10,11,12,13,14,15,16,17-tetradecahydro-20-oxacyclopropa[5,6]cyclopenta[a]phenanthren-4-yl}ester]", "values": [
      {"measurement": "growth of Notch1 silenced cells", "setting": "[1]", "value": "failed to inhibit the growth"},
      {"measurement": "pIC50", "setting": "Notch1/HCT116 clone C4 [2]", "value": 6.10},
      {"measurement": "pIC50", "setting": "Notch1/HCT116 clone C5 [3]", "value": 5.96},
      {"measurement": "expression of NICD and HES1 protein", "setting": "[4]", "value": "Significant downregulation"},
      {"measurement": "expression of NICD and HES1 protein", "setting": "[5]", "value": "Significant downregulation"},
      {"measurement": "induction of apoptosis", "setting": "HCT116 cells [6]", "value": 19.9, "unit": "%"},
      {"measurement": "inhibition of migratory capability", "setting": "HCT116 cells [7]", "value": 25.18, "unit": "%"},
      {"measurement": "decline in invasive capacity", "setting": "Notch1/HCT116 clone C4 [8]", "value": 60.75, "unit": "%"},
      {"measurement": "decline in invasive capacity", "setting": "Notch1/HCT116 clone C5 [9]", "value": 65.5, "unit": "%"},
      {"measurement": "inhibition of migratory capability", "setting": "SW620 cells", "value": 32.36, "unit": "%"},
      {"measurement": "decline in invasive capacity", "setting": "pCMV/HCT116 cells [10]", "value": 40, "unit": "%"},
      {"measurement": "decline in migratory potential", "setting": "pCMV/HCT116 cells [10]", "value": 25.11, "unit": "%"},
      {"measurement": "ubiquitin expression", "setting": "ubiquitin in ALDH+ cells", "value": "time dependent increased ubiquitin expression"},
      {"measurement": "pIC50", "setting": "MDA-MB-231 TNBC cells; MDA-MB-231, 24 h", "value": 6.12},
      {"measurement": "pIC50", "setting": "MDA-MB-231 TNBC cells; MDA-MB-231, 48 h", "value": 6.35},
      {"measurement": "inhibition of proliferation by combination", "setting": "MDA-MB-231 TNBC cells; ⅕th of IC50 of ASR490 (152 nM) in combination with 1/20th of IC50 of DOX (46.4 nM)", "value": 30, "unit": "%"},
      {"measurement": "growth inhibition alone", "setting": "MDA-MB-231 TNBC cells; ⅕th of IC50 of ASR490 alone", "value": "did not inhibit the growth"},
      {"measurement": "pIC50", "setting": "HCT116 cells [11]; HCT 116, 24-h", "value": 6.12},
      {"measurement": "pIC50", "setting": "HCT116 cells [11]; HCT 116, 48-h", "value": 6.22},
      {"measurement": "pIC50", "setting": "SW-620 cells; SW-620, 24-h", "value": 5.92},
      {"measurement": "pIC50", "setting": "SW-620 cells; SW-620, 48-h", "value": 6.07},
      {"measurement": "safe dose relative to dose used in efficacy studies", "setting": "500 mg/kg vs 5 mg/kg", "value": 100, "unit": "times"},
      {"measurement": "safe dose (MTD check)", "setting": "nu/nu mice", "value": "≤ 500", "unit": "mg/kg"},
      {"measurement": "apoptosis", "setting": "MDA-MB-231 cells; MDA MB-231, 24 h", "value": "approximately 20"},
      {"measurement": "apoptosis", "setting": "MDA-MB-231 cells; MDA MB-231, 48 h", "value": "~43"},
      {"measurement": "reduction of colony forming ability", "setting": "pCMV/HCT116 cells [12]", "value": 22.3, "unit": "%"},
      {"measurement": "reduction of colony forming ability", "setting": "Notch1/HCT116 clone C4 [13]", "value": 38, "unit": "%"},
      {"measurement": "tumor growth", "setting": "[14]", "value": "significant tumor growth inhibition"},
      {"measurement": "tumor burden", "setting": "[15]", "value": "significantly reduced tumor burden"}
    ]}
  ]
}
